According to the NIST ThermoML archive (doi:10.1021/acs.jced.5b00367):
Numbers after ± are expanded uncertainties.

What was measured:
[1] = Crystal; visual observation
[2] = mn = molality of the nth substance listed, in mol/kg; conditions: 303.15 K, 100 kPa, Liquid, Alternating current cell with electrodes
[3] = wn = mass fraction of the nth substance listed; conditions: 101 kPa, Liquid, Alternating current cell with electrodes, w1 = 0.01

Question: For CCCCCCCCCCCCCCCC[N+](C)(C)CC[N+](C)(C)CCCCCCCCCCCCCCCC.[Br-].[Br-], which Normal melting temperature [1] is on record?
Answer: 175.00 ± 1.1 °C

Question: Which results are given for CCCCCCCCCCCCCCCC[N+](C)(C)CC[N+](C)(C)CCCCCCCCCCCCCCCC.[Br-].[Br-] + O?
Answer: electrical conductivity ([2]; m1 = 5e-06): 0.00031 ± 0.00013 S/m; electrical conductivity ([2]; m1 = 1e-05): 0.0004 ± 0.00016 S/m; electrical conductivity ([2]; m1 = 1.5e-05): 0.00049 ± 0.0002 S/m; electrical conductivity ([2]; m1 = 2e-05): 0.00058 ± 0.00023 S/m; electrical conductivity ([2]; m1 = 2.5e-05): 0.00065 ± 0.00026 S/m; electrical conductivity ([2]; m1 = 3e-05): 0.00073 ± 0.00029 S/m; electrical conductivity ([2]; m1 = 3.5e-05): 0.0008 ± 0.00032 S/m; electrical conductivity ([2]; m1 = 4e-05): 0.00082 ± 0.00033 S/m; electrical conductivity ([2]; m1 = 5e-05): 0.00086 ± 0.00034 S/m; electrical conductivity ([2]; m1 = 6e-05): 0.00088 ± 0.00035 S/m

Question: For CCCCCCCCCCCC[N+](C)(C)CC[N+](C)(C)CCCCCCCCCCCC.[Br-].[Br-] [1,2-bis(dimethyldodecylammonium)ethane dibromide], which Normal melting temperature [1] is on record?
Answer: 157.00 ± 1.1 °C

Question: Which electrical conductivity ([3]; 275.15 K) does the source give for CCCCCCCCCCCC[N+](C)(C)CC[N+](C)(C)CCCCCCCCCCCC.[Br-].[Br-] [1,2-bis(dimethyldodecylammonium)ethane dibromide] + O here?
Answer: 0.0196 ± 0.0078 S/m

Question: And the electrical conductivity ([3]; 276.25 K)?
Answer: 0.0196 ± 0.0078 S/m

Question: And the electrical conductivity ([3]; 277.35 K)?
Answer: 0.0196 ± 0.0078 S/m

Question: And the electrical conductivity ([3]; 278.15 K)?
Answer: 0.0196 ± 0.0079 S/m

Question: And the electrical conductivity ([3]; 279.45 K)?
Answer: 0.0197 ± 0.0079 S/m

Question: What about the electrical conductivity ([3]; 280.25 K) of the same compound?
Answer: 0.0197 ± 0.0079 S/m

Question: And the electrical conductivity ([3]; 281.35 K)?
Answer: 0.0197 ± 0.0079 S/m

Question: And the electrical conductivity ([3]; 282.15 K)?
Answer: 0.0197 ± 0.0079 S/m

Question: And the electrical conductivity ([3]; 283.15 K)?
Answer: 0.0198 ± 0.0079 S/m

Question: What about the electrical conductivity ([3]; 284.25 K) of the same compound?
Answer: 0.0198 ± 0.0079 S/m

Question: And the electrical conductivity ([3]; 285.15 K)?
Answer: 0.0198 ± 0.0079 S/m

Question: And the electrical conductivity ([3]; 285.65 K)?
Answer: 0.0198 ± 0.0079 S/m

Question: And the electrical conductivity ([3]; 286.15 K)?
Answer: 0.0199 ± 0.008 S/m

Question: And the electrical conductivity ([3]; 288.15 K)?
Answer: 0.0202 ± 0.0081 S/m

Question: And the electrical conductivity ([3]; 289.15 K)?
Answer: 0.0203 ± 0.0081 S/m

Question: And the electrical conductivity ([3]; 290.15 K)?
Answer: 0.0204 ± 0.0082 S/m

Question: What about the electrical conductivity ([3]; 291.15 K) of the same compound?
Answer: 0.0205 ± 0.0082 S/m

Question: What about the electrical conductivity ([3]; 292.15 K) of the same compound?
Answer: 0.0206 ± 0.0083 S/m

Question: And the electrical conductivity ([3]; 293.15 K)?
Answer: 0.021 ± 0.0084 S/m

Question: What about the electrical conductivity ([3]; 295.75 K) of the same compound?
Answer: 0.0212 ± 0.0085 S/m

Question: And the electrical conductivity ([3]; 298.15 K)?
Answer: 0.0215 ± 0.0086 S/m

Question: What about the electrical conductivity ([3]; 299.65 K) of the same compound?
Answer: 0.0218 ± 0.0087 S/m

Question: What about the electrical conductivity ([3]; 301.65 K) of the same compound?
Answer: 0.022 ± 0.0088 S/m

Question: What about the electrical conductivity ([3]; 303.45 K) of the same compound?
Answer: 0.0222 ± 0.0089 S/m

Question: What about the electrical conductivity ([3]; 305.75 K) of the same compound?
Answer: 0.0225 ± 0.009 S/m

Question: And the electrical conductivity ([3]; 308.15 K)?
Answer: 0.0228 ± 0.0091 S/m

Question: And the electrical conductivity ([3]; 310.25 K)?
Answer: 0.0229 ± 0.0092 S/m

Question: And the electrical conductivity ([3]; 311.15 K)?
Answer: 0.023 ± 0.0092 S/m

Question: And the electrical conductivity ([3]; 313.15 K)?
Answer: 0.0232 ± 0.0093 S/m

Question: And the electrical conductivity ([3]; 315.15 K)?
Answer: 0.0235 ± 0.0094 S/m

Question: And the electrical conductivity ([3]; 317.95 K)?
Answer: 0.0237 ± 0.0095 S/m

Question: What about the electrical conductivity ([3]; 318.15 K) of the same compound?
Answer: 0.024 ± 0.0096 S/m

Question: And the electrical conductivity ([3]; 320.55 K)?
Answer: 0.0242 ± 0.0097 S/m

Question: What about the electrical conductivity ([3]; 323.15 K) of the same compound?
Answer: 0.0244 ± 0.0097 S/m

Question: What about the electrical conductivity ([3]; 325.55 K) of the same compound?
Answer: 0.0245 ± 0.0098 S/m

Question: And the electrical conductivity ([3]; 327.15 K)?
Answer: 0.0248 ± 0.0099 S/m

Question: What about the electrical conductivity ([3]; 329.35 K) of the same compound?
Answer: 0.0249 ± 0.01 S/m

Question: What about the electrical conductivity ([3]; 331.55 K) of the same compound?
Answer: 0.025 ± 0.01 S/m

Question: And the electrical conductivity ([3]; 334.15 K)?
Answer: 0.0252 ± 0.01 S/m

Question: What about the electrical conductivity ([3]; 335.55 K) of the same compound?
Answer: 0.0254 ± 0.01 S/m

Question: And the electrical conductivity ([3]; 337.95 K)?
Answer: 0.0255 ± 0.01 S/m

Question: And the electrical conductivity ([3]; 338.35 K)?
Answer: 0.0258 ± 0.01 S/m

Question: What about the electrical conductivity ([3]; 340.45 K) of the same compound?
Answer: 0.026 ± 0.01 S/m

Question: And the electrical conductivity ([3]; 343.15 K)?
Answer: 0.0263 ± 0.011 S/m

Question: What about the electrical conductivity ([3]; 345.15 K) of the same compound?
Answer: 0.0265 ± 0.011 S/m

Question: What about the electrical conductivity ([3]; 347.15 K) of the same compound?
Answer: 0.0266 ± 0.011 S/m

Question: And the electrical conductivity ([3]; 349.15 K)?
Answer: 0.0267 ± 0.011 S/m

Question: And the electrical conductivity ([3]; 353.05 K)?
Answer: 0.027 ± 0.011 S/m

Question: And the electrical conductivity ([2]; m1 = 0.000201)?
Answer: 0.00422 ± 0.0017 S/m

Question: What about the electrical conductivity ([2]; m1 = 0.000301) of the same compound?
Answer: 0.00612 ± 0.0024 S/m

Question: What about the electrical conductivity ([2]; m1 = 0.000402) of the same compound?
Answer: 0.00816 ± 0.0033 S/m

Question: What about the electrical conductivity ([2]; m1 = 0.000503) of the same compound?
Answer: 0.00967 ± 0.0039 S/m

Question: What about the electrical conductivity ([2]; m1 = 0.000603) of the same compound?
Answer: 0.012 ± 0.0048 S/m

Question: What about the electrical conductivity ([2]; m1 = 0.000703) of the same compound?
Answer: 0.0133 ± 0.0053 S/m

Question: And the electrical conductivity ([2]; m1 = 0.000803)?
Answer: 0.0162 ± 0.0065 S/m

Question: What about the electrical conductivity ([2]; m1 = 0.001206) of the same compound?
Answer: 0.0197 ± 0.0079 S/m

Question: What about the electrical conductivity ([2]; m1 = 0.001407) of the same compound?
Answer: 0.0205 ± 0.0082 S/m

Question: What about the electrical conductivity ([2]; m1 = 0.001608) of the same compound?
Answer: 0.0212 ± 0.0085 S/m

Question: What about the electrical conductivity ([2]; m1 = 0.001809) of the same compound?
Answer: 0.022 ± 0.0088 S/m

Question: And the electrical conductivity ([2]; m1 = 0.00201)?
Answer: 0.0226 ± 0.009 S/m

Question: And the electrical conductivity ([2]; m1 = 0.002211)?
Answer: 0.0231 ± 0.0092 S/m

Question: Which Normal melting temperature [1] does the source give for CCCCCCCCCCCCCCCC[N+](C)(C)C.[Br-] [N,N,N-trimethyl-1-hexadecanaminium bromide] here?
Answer: 247.00 ± 1.1 °C

Question: With CCCCCCCCCC[N+](CC)(CC)CCCCCCCCCC.[Br-] [didecyldiethylammonium bromide] as the compound, how does the Normal melting temperature [1] read?
Answer: 45.00 ± 1.1 °C

Question: For CCCCCCCCCCCC[N+](CC)(CC)CCCCCCCCCCCC.[Br-] [didodecyldiethylammonium bromide], which Normal melting temperature [1] is on record?
Answer: 52.20 ± 1.1 °C

Question: Which Normal melting temperature [1] does the source give for CCCCCCCCCCCCCCCC[N+](CC)(CC)CCCCCCCCCCCCCCCC.[Br-] [diethyldihexadecylammonium bromide] here?
Answer: 73.80 ± 1.1 °C

Question: Which Normal melting temperature [1] does the source give for CCCCCCCCCCCC[N+](C)(C)C.[Br-] [dodecyltrimethylammonium bromide] here?
Answer: 265.00 ± 1.1 °C
